Laboratory results taken from patent US12419905B2, “Methods and compositions for the treatment of amyloid-related disorders” (YALE UNIVERSITY, priority 2018, dated 2025).

Experiments:
[1] = system: Aßo/PrP^C interaction in stably PrP^C-transfected CV1 cells; assay type: cell-based, rat
[2] = system: APP/PS1 transgenic Alzheimer's model mice; experiment: Morris water maze in APP/PS1 mice; assay type: in vivo, mouse; conditions: fresh ceftazidime (as Fortaz) 100 mg/kg IP BID
Method: For Morris water maze, mice were randomly assigned to treatment groups and the experimenter was unaware of both genotype and treatment group. Groups were balanced for age, sex, and weight. Mice used were 12-14 months of age at experiment initiation. During treatment, the experimenter was blinded to genotype. For drug treated mice, Poly(4-styrenesulfonic acid co-maleic acid) was administered by twice daily oral gavage of 5.0 mg and 15.0 mg Poly(4-styrenesulfonic acid co-maleic acid) per kg body weight in a vehicle of 0.5% w/v hydroxypropyl methylcellulose and 0.1% w/v polysorbate 80 to APP/PS1 and WT mice, respectively. Vehicle treated animals were gavaged twice daily with vehicle. 500 mg ceftazidime as Fortaz was dissolved per manufacturer's instructions in 1.5 ml sterile milliQ H2O to obtain 333 mg/ml in sodium carbonate solution. Animals treated peripherally with fresh ceftazidime were injected directly after dissolution intraperitoneally with 100 mg ceftazidime per kg body weight in a vehicle of PBS. Animals treated centrally with aged ceftazidime were fitted with an intracerebroventricular cannula (Alzet brain infusion kit 0008663) and subcutaneous osmotic minipump (Alzet model 1004) loaded with aged ceftazidime diluted in PBS. All animals were treated for 4 weeks prior to the Morris water maze and throughout assessment. […]

Q: What does the source list for `CO/N=C(\C(=O)N[C@@H]1C(=O)N2C(C(=O)O)=C(CSc3nc(=O)c(=O)[nH]n3C)CS[C@H]12)c1csc(N)n1` [ceftriaxone]?
A: Aßo/PrP^C interaction-inhibiting activity, aged drug [1]: zero activity; Aßo/PrP^C interaction-inhibiting activity, fresh drug [1]: zero activity

Q: How did the “Aßo/PrP^C interaction-inhibiting activity, aged drug” value [1] turn out when `CO/N=C(\C(=O)N[C@@H]1C(=O)N2C(C(=O)O)=C(COC(C)=O)CS[C@H]12)c1csc(N)n1` [cefotaxime] was run?
A: zero activity

Q: What about the “Aßo/PrP^C interaction-inhibiting activity, fresh drug” value [1] of the same compound?
A: zero activity

Q: What does the source list for `CC(C)(O/N=C(\C(=O)N[C@@H]1C(=O)N2C(C(=O)[O-])=C(C[n+]3ccccc3)CS[C@H]12)c1csc(N)n1)C(=O)O` [ceftazidime]?
A: Aßo/PrP^C interaction-inhibiting activity, aged drug [1]: exhibited activity; MWM latency to hidden platform, effect of treatment [2]: no detectable effect
